Active and inactive are the calls of the source. The calls are words filed in the database; no cut-off is given here.
Key:
[1] = target: T1, Retinoic acid receptor RXR-alpha (Homo sapiens) (UniProt P19793); assay: Displacement of 6-(Ethyl-{5-isobutoxy-4-isopropyl-2-[(10-oxo-2,3,5,6-tetrahydro-1H,4H,10H-11-oxa-3a-aza-benzo[de]anthracene-9-carbonyl)-amino]-phenyl}-amino)-nicotinic acid from human RXRalpha-LBD by fluorescence binding assay
T1 sequence (whole entry): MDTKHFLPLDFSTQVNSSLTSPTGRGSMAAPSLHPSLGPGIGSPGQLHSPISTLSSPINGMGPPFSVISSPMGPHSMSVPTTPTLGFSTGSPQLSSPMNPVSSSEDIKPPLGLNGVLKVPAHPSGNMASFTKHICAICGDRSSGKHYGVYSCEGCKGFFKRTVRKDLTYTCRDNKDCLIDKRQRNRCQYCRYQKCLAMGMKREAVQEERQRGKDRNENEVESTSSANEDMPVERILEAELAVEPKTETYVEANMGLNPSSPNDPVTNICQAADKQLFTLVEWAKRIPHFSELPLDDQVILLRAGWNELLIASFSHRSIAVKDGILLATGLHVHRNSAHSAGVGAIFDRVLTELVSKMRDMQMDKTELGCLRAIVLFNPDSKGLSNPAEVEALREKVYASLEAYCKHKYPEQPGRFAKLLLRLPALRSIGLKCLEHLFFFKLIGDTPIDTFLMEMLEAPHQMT

[2] = target: T2, Retinoic acid receptor RXR-alpha (Homo sapiens, UniProt P19793); assay: Antagonist activity at human RXRalpha expressed in COS-7 cells assessed as suppression of NEt-TMN-induced receptor transactivation by luciferase reporter gene assay; format: cell-based; conditions: read-out: pA2 (converted)
T2 sequence (P19793 whole entry): T1 sequence (whole entry)

[3] = target: T2, Retinoic acid receptor RXR-alpha; assay: Displacement of [3H]9cis-RA from human RXRalpha-LBD by competitive binding assay

Compound: CC/C=C\C/C=C\C/C=C\C/C=C\C/C=C\CCCC(=O)O
- Activity [1]: Active

Compound: CCCCC/C=C\C/C=C\C/C=C\C/C=C\CCCC(=O)O
- Activity [1]: Active

Compound: C=CCc1ccc(O)c(-c2ccc(O)c(CC=C)c2)c1
- Activity [1]: Active

Compound: CC/C=C\C/C=C\C/C=C\C/C=C\C/C=C\C/C=C\CCC(=O)O
- Activity [1]: Active

Compound: CCN(c1ccc(C(=O)O)cn1)c1cc(OCC(C)C)c(C(C)C)cc1NC(=O)c1ccccc1
- Kb [2]: 47.9 nM
- Ki [3]: 425 nM

Source: ChEMBL document CHEMBL4765485, “Convenient Retinoid X Receptor Binding Assay Based on Fluorescence Change of the Antagonist NEt-C343” (J Med Chem, 2021)
